In patent US11767310B2, “Nicotinamide RIPK1 inhibitors” (AbbVie Inc., priority 2021, dated 2023):
Like-named read-outs stand apart in the source and are kept apart here.

What was measured:
Assay in all cases: Kinase binding screen
Settings in all cases: read-out: Percent Control at 100 nM Compound Concentration
[1] = molecular target: PKAC-alpha (Homo sapiens (Human), UniProt P17612)
[2] = molecular target: JNK1 (Homo sapiens (Human), UniProt P45983)
[3] = molecular target: EPHB3 (Homo sapiens (Human), UniProt P54753)
[4] = molecular target: PIK3CA(I800L) (Homo sapiens (Human), UniProt P42336, I800L)
PIK3CA(I800L), sequence (P42336 whole entry I800L): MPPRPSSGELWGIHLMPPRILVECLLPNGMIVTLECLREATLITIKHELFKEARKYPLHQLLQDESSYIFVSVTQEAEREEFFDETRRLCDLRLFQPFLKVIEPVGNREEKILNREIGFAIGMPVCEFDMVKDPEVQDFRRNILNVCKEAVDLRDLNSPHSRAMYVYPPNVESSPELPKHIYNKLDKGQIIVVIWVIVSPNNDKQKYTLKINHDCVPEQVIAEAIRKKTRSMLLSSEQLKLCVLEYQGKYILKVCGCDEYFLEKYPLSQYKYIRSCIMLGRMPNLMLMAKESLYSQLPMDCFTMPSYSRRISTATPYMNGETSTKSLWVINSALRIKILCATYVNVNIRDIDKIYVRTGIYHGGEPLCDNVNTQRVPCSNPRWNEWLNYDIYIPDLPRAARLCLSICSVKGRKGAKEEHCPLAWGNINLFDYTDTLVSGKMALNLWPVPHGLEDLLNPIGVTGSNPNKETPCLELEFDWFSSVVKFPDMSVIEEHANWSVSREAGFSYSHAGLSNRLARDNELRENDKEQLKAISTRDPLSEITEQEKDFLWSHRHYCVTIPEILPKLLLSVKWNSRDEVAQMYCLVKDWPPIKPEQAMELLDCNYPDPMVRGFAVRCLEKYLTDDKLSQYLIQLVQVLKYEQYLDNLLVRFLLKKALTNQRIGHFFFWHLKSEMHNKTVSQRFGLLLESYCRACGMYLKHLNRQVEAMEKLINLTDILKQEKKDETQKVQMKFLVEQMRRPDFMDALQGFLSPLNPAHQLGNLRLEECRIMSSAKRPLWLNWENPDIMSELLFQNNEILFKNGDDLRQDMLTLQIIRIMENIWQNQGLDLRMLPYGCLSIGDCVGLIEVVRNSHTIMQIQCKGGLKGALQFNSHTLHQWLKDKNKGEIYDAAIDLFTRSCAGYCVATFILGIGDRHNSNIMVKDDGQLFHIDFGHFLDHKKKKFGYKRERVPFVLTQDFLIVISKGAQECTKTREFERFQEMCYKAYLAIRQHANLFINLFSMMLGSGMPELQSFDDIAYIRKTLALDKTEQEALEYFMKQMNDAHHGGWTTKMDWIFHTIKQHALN

[5] = molecular target: JAK1(JH2domain-pseudokinase) (Homo sapiens (Human), UniProt P23458)
JAK1(JH2domain-pseudokinase), sequence (P23458 583-855): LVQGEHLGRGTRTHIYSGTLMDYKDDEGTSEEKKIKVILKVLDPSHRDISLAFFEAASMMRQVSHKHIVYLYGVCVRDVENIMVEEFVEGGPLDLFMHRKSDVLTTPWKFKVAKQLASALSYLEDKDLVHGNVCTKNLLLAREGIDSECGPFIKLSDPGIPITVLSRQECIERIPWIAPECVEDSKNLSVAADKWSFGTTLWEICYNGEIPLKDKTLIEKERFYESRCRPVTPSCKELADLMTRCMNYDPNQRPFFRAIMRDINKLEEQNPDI

[6] = molecular target: HASPIN (Homo sapiens (Human), UniProt Q8TF76)
[7] = molecular target: CDC2L2 (Homo sapiens (Human), UniProt Q9UQ88)
[8] = molecular target: MAP4K5 (Homo sapiens (Human), UniProt Q9Y4K4)
MAP4K5, sequence (Q9Y4K4 whole entry): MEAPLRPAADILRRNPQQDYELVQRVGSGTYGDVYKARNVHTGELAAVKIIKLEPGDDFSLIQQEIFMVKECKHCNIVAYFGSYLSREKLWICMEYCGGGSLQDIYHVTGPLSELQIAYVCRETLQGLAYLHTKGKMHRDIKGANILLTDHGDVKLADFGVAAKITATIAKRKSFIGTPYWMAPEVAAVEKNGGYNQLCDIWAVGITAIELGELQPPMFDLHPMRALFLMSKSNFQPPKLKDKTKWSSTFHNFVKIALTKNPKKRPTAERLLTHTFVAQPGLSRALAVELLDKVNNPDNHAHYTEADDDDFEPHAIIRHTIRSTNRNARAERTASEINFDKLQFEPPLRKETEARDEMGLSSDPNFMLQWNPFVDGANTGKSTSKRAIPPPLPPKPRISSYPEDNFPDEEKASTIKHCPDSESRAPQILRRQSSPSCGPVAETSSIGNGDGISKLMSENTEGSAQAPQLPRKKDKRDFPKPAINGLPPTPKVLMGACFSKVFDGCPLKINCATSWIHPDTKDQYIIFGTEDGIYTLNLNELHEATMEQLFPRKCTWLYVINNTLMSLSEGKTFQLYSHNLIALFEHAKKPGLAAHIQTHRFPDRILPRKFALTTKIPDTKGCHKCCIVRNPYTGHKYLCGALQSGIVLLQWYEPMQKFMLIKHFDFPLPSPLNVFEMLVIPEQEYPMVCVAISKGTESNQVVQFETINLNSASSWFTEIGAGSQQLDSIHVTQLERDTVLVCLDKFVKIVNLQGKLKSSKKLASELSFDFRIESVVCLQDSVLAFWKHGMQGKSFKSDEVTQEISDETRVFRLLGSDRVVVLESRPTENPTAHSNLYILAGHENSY

[9] = molecular target: MYLK4 (Homo sapiens (Human), UniProt Q86YV6)
[10] = molecular target: EGFR(T790M) (Homo sapiens (Human), UniProt P00533, T790M)
[11] = molecular target: YSK4 (Homo sapiens (Human), UniProt Q56UN5)
[12] = molecular target: BRK (Homo sapiens (Human), UniProt Q13882)
BRK, sequence (Q13882 whole entry): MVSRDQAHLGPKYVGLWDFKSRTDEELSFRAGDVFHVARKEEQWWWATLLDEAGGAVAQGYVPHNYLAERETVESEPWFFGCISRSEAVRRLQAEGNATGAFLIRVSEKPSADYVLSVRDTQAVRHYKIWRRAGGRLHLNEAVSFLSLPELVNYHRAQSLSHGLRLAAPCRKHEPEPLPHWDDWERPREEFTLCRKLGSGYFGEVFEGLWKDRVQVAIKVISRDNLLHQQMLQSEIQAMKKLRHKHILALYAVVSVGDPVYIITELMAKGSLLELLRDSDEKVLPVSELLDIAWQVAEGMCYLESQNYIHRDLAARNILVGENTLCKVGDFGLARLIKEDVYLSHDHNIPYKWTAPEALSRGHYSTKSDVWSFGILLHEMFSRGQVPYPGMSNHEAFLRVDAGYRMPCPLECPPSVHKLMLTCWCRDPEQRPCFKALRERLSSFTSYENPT

[13] = molecular target: ERN1 (Homo sapiens (Human), UniProt O75460)
[14] = molecular target: DAPK3 (Homo sapiens (Human), UniProt O43293)
[15] = molecular target: JNK2 (Homo sapiens (Human), UniProt P45984)
[16] = molecular target: DCAMKL1 (Homo sapiens (Human), UniProt O15075)
[17] = molecular target: DCAMKL2 (Homo sapiens (Human), UniProt Q8N568)
[18] = molecular target: MST4 (Homo sapiens (Human), UniProt Q9P289)
[19] = molecular target: CSK (Homo sapiens (Human), UniProt P41240)
[20] = molecular target: MAP4K4 (Homo sapiens (Human), UniProt O95819)
[21] = molecular target: AKT2 (Homo sapiens (Human), UniProt P31751)
AKT2, sequence (P31751 whole entry): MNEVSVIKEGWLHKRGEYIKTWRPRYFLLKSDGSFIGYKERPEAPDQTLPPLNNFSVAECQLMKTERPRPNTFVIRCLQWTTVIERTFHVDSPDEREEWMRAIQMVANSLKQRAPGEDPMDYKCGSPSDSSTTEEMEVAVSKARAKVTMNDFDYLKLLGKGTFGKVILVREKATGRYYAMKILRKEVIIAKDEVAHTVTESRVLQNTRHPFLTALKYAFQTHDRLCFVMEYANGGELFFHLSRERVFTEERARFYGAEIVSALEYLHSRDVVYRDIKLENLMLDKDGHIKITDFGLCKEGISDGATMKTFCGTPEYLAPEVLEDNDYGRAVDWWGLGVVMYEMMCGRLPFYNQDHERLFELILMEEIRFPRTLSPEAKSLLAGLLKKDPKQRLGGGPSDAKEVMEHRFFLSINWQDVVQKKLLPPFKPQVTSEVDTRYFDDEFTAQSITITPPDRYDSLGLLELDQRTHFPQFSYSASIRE

[22] = molecular target: DCAMKL3 (Homo sapiens (Human), UniProt Q9C098)
DCAMKL3, sequence (Q9C098 whole entry, looked up): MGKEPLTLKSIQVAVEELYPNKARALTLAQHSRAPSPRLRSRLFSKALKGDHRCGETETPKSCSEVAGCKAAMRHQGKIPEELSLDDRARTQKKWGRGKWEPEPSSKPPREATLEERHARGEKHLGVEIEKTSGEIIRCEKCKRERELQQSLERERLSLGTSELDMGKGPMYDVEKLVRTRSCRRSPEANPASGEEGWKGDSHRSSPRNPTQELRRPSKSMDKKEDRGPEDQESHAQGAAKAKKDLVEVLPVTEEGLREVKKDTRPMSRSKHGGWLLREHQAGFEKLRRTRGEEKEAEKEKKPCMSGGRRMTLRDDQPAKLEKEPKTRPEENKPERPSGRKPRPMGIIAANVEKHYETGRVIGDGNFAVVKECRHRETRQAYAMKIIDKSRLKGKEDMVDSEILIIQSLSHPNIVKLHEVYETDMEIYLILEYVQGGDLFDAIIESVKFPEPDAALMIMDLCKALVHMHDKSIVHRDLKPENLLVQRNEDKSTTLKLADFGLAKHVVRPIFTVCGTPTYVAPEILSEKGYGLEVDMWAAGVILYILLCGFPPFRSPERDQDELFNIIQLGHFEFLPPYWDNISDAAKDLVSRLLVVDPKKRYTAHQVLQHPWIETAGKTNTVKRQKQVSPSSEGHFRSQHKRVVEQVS

[23] = molecular target: BTK (Homo sapiens (Human), UniProt Q06187)
[24] = molecular target: MRCKB (Homo sapiens (Human), UniProt Q9Y5S2)
[25] = molecular target: PIK3CA(Q546K) (Homo sapiens (Human), UniProt P42336, Q546K)
PIK3CA(Q546K), sequence (P42336 whole entry Q546K): as the sequence (P42336 whole entry I800L) above, with Q546K, L800I counted along it

[26] = molecular target: FGFR3 (Homo sapiens (Human), UniProt P22607)
[27] = molecular target: LTK (Homo sapiens (Human), UniProt P29376)
[28] = molecular target: EPHB4 (Homo sapiens (Human), UniProt P54760)
[29] = molecular target: NEK1 (Homo sapiens (Human), UniProt Q96PY6)
NEK1, sequence (Q96PY6 whole entry): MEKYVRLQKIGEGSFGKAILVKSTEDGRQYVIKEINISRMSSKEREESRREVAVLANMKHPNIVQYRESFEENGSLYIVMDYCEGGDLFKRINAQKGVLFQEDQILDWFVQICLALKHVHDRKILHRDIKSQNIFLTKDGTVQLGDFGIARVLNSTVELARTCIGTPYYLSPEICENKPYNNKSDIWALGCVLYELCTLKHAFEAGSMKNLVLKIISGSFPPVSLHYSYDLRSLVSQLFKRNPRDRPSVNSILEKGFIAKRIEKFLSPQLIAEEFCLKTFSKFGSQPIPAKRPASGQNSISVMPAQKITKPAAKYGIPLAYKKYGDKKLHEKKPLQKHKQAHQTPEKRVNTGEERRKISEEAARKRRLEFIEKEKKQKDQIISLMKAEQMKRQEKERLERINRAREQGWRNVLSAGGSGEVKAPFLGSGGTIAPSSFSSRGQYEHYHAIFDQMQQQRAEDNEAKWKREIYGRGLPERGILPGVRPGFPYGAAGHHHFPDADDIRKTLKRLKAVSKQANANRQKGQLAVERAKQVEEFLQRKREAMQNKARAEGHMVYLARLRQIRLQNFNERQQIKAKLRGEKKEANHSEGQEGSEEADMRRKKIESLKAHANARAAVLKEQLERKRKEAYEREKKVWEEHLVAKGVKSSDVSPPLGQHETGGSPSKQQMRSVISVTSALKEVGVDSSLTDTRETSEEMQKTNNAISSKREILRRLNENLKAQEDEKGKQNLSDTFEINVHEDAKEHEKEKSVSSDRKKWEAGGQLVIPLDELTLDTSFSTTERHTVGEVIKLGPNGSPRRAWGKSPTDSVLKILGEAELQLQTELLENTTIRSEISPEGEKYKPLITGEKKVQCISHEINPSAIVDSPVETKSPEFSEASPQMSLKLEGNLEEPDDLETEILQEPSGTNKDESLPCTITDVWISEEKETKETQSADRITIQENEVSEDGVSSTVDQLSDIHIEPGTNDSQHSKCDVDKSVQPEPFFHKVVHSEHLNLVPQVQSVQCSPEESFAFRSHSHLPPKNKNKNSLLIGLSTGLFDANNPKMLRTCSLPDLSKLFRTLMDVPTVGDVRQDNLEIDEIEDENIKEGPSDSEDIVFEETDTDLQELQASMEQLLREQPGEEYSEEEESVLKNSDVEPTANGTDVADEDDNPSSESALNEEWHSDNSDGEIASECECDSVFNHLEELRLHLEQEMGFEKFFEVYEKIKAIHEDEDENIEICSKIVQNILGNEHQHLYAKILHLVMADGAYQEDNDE

## CN(C[C@@H](O)Cc1ccccc1)C(=O)c1cncc(C#Cc2cnn(C(F)F)c2)c1 [Example 2, (S)-5-((1-(difluoromethyl)-1H-pyrazol-4-yl)ethynyl)-N-(2-hydroxy-3-phenylpropyl)-N-methylnicotinamide]
[1]; PKAC-alpha
  remaining activity at 0.1 µM: 94%
[2]; JNK1
  remaining activity at 0.1 µM: 92%
[3]; EPHB3
  remaining activity at 0.1 µM: 100%
[4]; PIK3CA(I800L)
  remaining activity at 0.1 µM: 96%
[5]; JAK1(JH2domain-pseudokinase)
  remaining activity at 0.1 µM: 93%
[6]; HASPIN
  remaining activity at 0.1 µM: 86%
[7]; CDC2L2
  remaining activity at 0.1 µM: 100%
[8]; MAP4K5
  remaining activity at 0.1 µM: 87%
[9]; MYLK4
  remaining activity at 0.1 µM: 99%
[10]; EGFR(T790M)
  remaining activity at 0.1 µM: 100%
[11]; YSK4
  remaining activity at 0.1 µM: 99%
[12]; BRK
  remaining activity at 0.1 µM: 100%
[13]; ERN1
  remaining activity at 0.1 µM: 100%
[14]; DAPK3
  remaining activity at 0.1 µM: 100%
[15]; JNK2
  remaining activity at 0.1 µM: 91%
[16]; DCAMKL1
  remaining activity at 0.1 µM: 100%
[17]; DCAMKL2
  remaining activity at 0.1 µM: 100%
[18]; MST4
  remaining activity at 0.1 µM: 97%
[19]; CSK
  remaining activity at 0.1 µM: 98%
[20]; MAP4K4
  remaining activity at 0.1 µM: 92%
[21]; AKT2
  remaining activity at 0.1 µM: 99%
[22]; DCAMKL3
  remaining activity at 0.1 µM: 100%
[23]; BTK
  remaining activity at 0.1 µM: 100%
[24]; MRCKB
  remaining activity at 0.1 µM: 95%
[25]; PIK3CA(Q546K)
  remaining activity at 0.1 µM: 96%
[26]; FGFR3
  remaining activity at 0.1 µM: 100%
[27]; LTK
  remaining activity at 0.1 µM: 100%
[28]; EPHB4
  remaining activity at 0.1 µM: 100%
[29]; NEK1
  remaining activity at 0.1 µM: 100%

## CN(C[C@H](Cc1ccccc1)OP(=O)(O)O)C(=O)c1cncc(C#Cc2cnn(C(F)F)c2)c1 [Example 19, (S)-1-(5-((1-(difluoromethyl)-1H-pyrazol-4-yl)ethynyl)-N-methylnicotinamido)-3-phenylpropan-2-yl dihydrogen phosphate]
[1]
  remaining activity at 0.1 µM: 94%
[2]
  remaining activity at 0.1 µM: 87%
[3]
  remaining activity at 0.1 µM: 100%
[4]
  remaining activity at 0.1 µM: 87%
[5]
  remaining activity at 0.1 µM: 86%
[6]
  remaining activity at 0.1 µM: 83%
[7]
  remaining activity at 0.1 µM: 100%
[8]
  remaining activity at 0.1 µM: 95%
[9]
  remaining activity at 0.1 µM: 100%
[10]
  remaining activity at 0.1 µM: 100%
[11]
  remaining activity at 0.1 µM: 90%
[12]
  remaining activity at 0.1 µM: 100%
[13]
  remaining activity at 0.1 µM: 93%
[14]
  remaining activity at 0.1 µM: 97%
[15]
  remaining activity at 0.1 µM: 92%
[16]
  remaining activity at 0.1 µM: 100%
[17]
  remaining activity at 0.1 µM: 100%
[18]
  remaining activity at 0.1 µM: 84%
[19]
  remaining activity at 0.1 µM: 93%
[20]
  remaining activity at 0.1 µM: 95%
[21]
  remaining activity at 0.1 µM: 90%
[22]
  remaining activity at 0.1 µM: 100%
[23]
  remaining activity at 0.1 µM: 96%
[24]
  remaining activity at 0.1 µM: 100%
[25]
  remaining activity at 0.1 µM: 88%
[26]
  remaining activity at 0.1 µM: 100%
[27]
  remaining activity at 0.1 µM: 100%
[28]
  remaining activity at 0.1 µM: 100%
[29]
  remaining activity at 0.1 µM: 100%
